Data: patent US4562292A, “Trifluoromethylketone sulfides and reversible enzyme inhibition therewith” (priority 1983, dated 1985)
“Also recorded” adds a separate entry of the source. Where two headings read alike, the source gives them in different places.

Tests used:
[1] = biological target: JH esterase; test: JH esterase inhibition in T. ni hemolymph; format: biochemical, Trichoplusia ni; settings: for IC50: diluted T. ni larval plasma, 10 min preincubation at 30° C., 5×10^-6 M JH III, read-out: I50 (M) JHE
Procedure: JH esterase activity was monitored in the hemolymph collected from last stadium day two larvae of the cabbage looper, Trichoplusia ni, Lepidoptera, Noctuidae. The plasma was diluted (v/v) in sodium phosphate buffer (pH 7.4, 0.08M with 0.01% [w/v] phenyulthiourea) and frozen at -60° C. until used. The inventive compounds were added in 1μ liter of ethanol to 100μ liters of the diluted plasma and preincubated for 10 min at 30° C. before adding substrate (ClO^3 H JH III New England Nuclear and unlabeled E, E JH III, Calbiochem) in 1μ liter of ethanol to give a final concentration of 5×10^-6 M JH III containing about 30,000 dpm/assay (Hammock and Sparks, Anal. Biochem. 82, 573 (1977).
(§1) In each case, at least three replicates of each inhibitor concentration were used. A minimum of two inhibitor concentrations showing greater and less than 50% inhibition were used to determine the I50 values from semilog plots except in the case of weaker inhibitors. Only those points on the apparently linear portion of the curve were used to calculate the I50 's.

[2] = system: α-NAE; test: α-Naphtyl acetate (α-NA) hydrolysis in T. ni prepupal hemolymph; format: biochemical, Trichoplusia ni; settings: hemolymph of T. ni prepupae, substrate 2.3×10^-4 M; read-out: I50 (M) α-NAE
Procedure: α-Naphtyl acetate (α-NA) hydrolysis was monitored similarly in the hemolymph of prepupae of T. ni (fifth stadium, day 4) with a final substrate of 2.3×10^-4 M. Plasma dilutions and incubation times were chosen to give a hydrolysis rate which was linear with time.
as §1

[3] = biological target: T1, Type VI-S electric eel AChE (Electrophorus electricus, UniProt O42275); test: acetylcholinesterase (AChE) activity; format: biochemical
T1 construct: purchased Sigma Type VI-S
T1 sequence (O42275 24-633): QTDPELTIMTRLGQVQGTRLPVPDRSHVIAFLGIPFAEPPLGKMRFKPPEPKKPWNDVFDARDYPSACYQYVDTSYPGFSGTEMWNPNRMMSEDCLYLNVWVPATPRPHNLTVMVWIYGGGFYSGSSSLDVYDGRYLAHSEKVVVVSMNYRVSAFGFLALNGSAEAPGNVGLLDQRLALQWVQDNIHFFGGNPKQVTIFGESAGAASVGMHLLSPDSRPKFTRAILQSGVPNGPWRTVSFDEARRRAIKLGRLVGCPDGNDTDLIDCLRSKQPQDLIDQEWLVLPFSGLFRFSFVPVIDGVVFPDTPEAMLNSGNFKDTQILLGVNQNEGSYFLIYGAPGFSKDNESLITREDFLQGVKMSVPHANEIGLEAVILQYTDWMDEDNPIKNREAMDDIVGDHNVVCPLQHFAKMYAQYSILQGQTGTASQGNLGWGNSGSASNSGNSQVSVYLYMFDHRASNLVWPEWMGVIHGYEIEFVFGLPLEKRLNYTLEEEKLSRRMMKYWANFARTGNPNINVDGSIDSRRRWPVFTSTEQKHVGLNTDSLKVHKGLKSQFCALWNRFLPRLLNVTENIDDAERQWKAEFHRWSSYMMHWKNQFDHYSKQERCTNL
Procedure: For acetylcholinesterase (AChE) activity, 20μ liters of acetylthiocholine iodide (Sigma) in sodium phosphate buffer (0.05M, ph 7.2) was added to Type VI-S electric eel AChE (Sigma, 10 ng with 2-400 units/mg protein) in 3 ml the same buffer to give a final substrate concentration of 5×10^-4 M. The assay was run at 37° C.
(§2) For AChE, trypsin and α-ChT, the inhibitor was added to ethanol 10 min prior to the substrate and preincubated at the same temperature used for the actual assay. In no case was greater than 1% v/v ethanol added, and ethanol controls were always run. For the spectrophotometric enzyme assays, initial studies were run on a Varian-Cary 219 UV/visible spectrophotometer, while subsequent assays were run on a Gilford manual EIA reading using disposable cuvettes.
as §1

[4] = biological target: T2, bovine pancreatic type III trypsin (Bos taurus, UniProt P00760); test: trypsin activity; format: biochemical
T2 construct: purchased Sigma type III
T2 sequence (P00760 24-246): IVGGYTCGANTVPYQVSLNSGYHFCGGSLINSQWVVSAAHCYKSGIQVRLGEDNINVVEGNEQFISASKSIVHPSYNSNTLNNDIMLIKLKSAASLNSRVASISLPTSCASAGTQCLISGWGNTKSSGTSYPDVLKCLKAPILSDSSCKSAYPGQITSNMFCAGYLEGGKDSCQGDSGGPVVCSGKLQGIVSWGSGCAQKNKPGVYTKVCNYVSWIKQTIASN
Procedure: For trypsin, 1.5 ml of p-toluenesulfonyl-L-arginine methyl ester (Sigma) in Tris HCl buffer (pH 8.1, 0.04M with 0.1M CaCl2) was added to 1.5 ml of the same buffer containing bovine pancreatic type III trypsin (Sigma, 0.24 μg) to give a final substrate concentration of 1×10^-4 M. The assay was performed at 25° C.
as §2, §1

[5] = system: T. ni larvae; test: topical treatment of T. ni larvae, time of pupation; format: in vivo, Trichoplusia ni; settings: for delay of pupation versus ethanol controls: 0.1 and 0.2μ mole per application, 3 times per day, L5D1 and D2, topical; for delay of pupation: topical
Procedure: (§3) T. ni larvae are treated with 1 or 2μ liters of ethanol, with TFPOS, wit o-ethyl-S-phenyl phosphoramidothiolate (EPPAT), or with 1,1,1-trifluorotetradecan-2-one (TFT) in 1×10^-1 M ethanol solutions on the dorsum of the thorax three times per day (4, 12 and 17 hr after lights on) during the first two days of the last larval stadium. The insects were held under standard rearing conditions (27° C., 14 hr light, 10 hr dark). The time of pupation was checked daily at 4 hr after lights on and the pupae were checked for successful emergence two weeks later.
(§4) Larvae were treated on the dorsum of the thorax with 1 or 2μ liters of ethanol (control) and with 1 or 2μ liters, respectively, of 10^-1 M TFT, TFPOS, DTFT or EPPAT in ethanol, 3 times per day at 4, 12 and 17 h ALO (after lights on) on L5Dl and D2. Time of pupation was checked daily at 4 h ALO, and emergence was checked 2 weeks after treatment. L5Dl larvae 4 h ALO were also treated, but only once with 1μ liter ethanol or with 1μ liter of 10-1 M TFT, TFPOS, or EPPAT in ethanol, and then were bled at 1, 8, 12, 23, 28, or 32 h after treatment. Hemolymph was collected from five larvae, mixed and frozen at -60° C. until assayed for JHE and α-NAE activity. […] Death usually occured during the larval-pupal transformation, with the control mortality at 2μ liters of ethanol being 1%, TFT at 0.2M being 6%, an TFPOS being 4%.

[6] = system: T. ni larvae; test: mortality of T. ni larvae after repeated topical applications; format: in vivo, Trichoplusia ni; settings: for mortality at 0.2 µmol/application: Trichoplusia, topical, repeated applications of 2μ liters (0.2 moles/application), Example VIII; for mortality: repeated 1μ liter applications of 1×10^-1 M solution
Procedure: as §3, §4

[7] = system: T. ni JHE; test: in vivo inhibition of T. ni JHE after topical application; set-up: species or system Trichoplusia ni; settings: for maximum percent inhibition obtainable after treatment / selectivity for JHE in vivo: compared with EPPAT; for time of maximum inhibition of T. ni JHE after topical application: single dose 0.1μ moles/larve
Procedure: as §4
In another study, the in vivo inhibition of T. ni JHE following a single dose (0.1μ moles/larve) of EPPAT and TFPOS respectively was monitored. Maximum inhibition of T. ni JHE was obtained one hour after topical application for each.

[8] = system: T. ni JHE; test: removal of inhibitor by dialysis (reversibility of inhibition); format: biochemical, Trichoplusia ni; settings: for enzyme activity after dialysis: 48 hours after starting the dialysis; for t0.5 of reactivation / type of inhibition of T. ni JHE: dialysis
[9] = system: clofibrate esterase; test: hydrolysis of clofibrate by microsomal protein; format: biochemical, human
Description: The drug clofibrate (α-[4-chlorophenoxy)-α-methylpropionate; Atromid-S) is one of a class of compounds given to heart patients as a hypolipidemic agent.

[10] = system: JH esterase; settings: crude juvenile hormone esterase from the cabbage looper; cited from earlier work
[11] = system: T. ni larvae; settings: cited from earlier work
[12] = acetylthiocholine iodide 5×10^-4 M, 37° C., * = greater than, read-out: I50 (M) AChE
[13] = p-toluenesulfonyl-L-arginine methyl ester 1×10^-4 M, 25° C., read-out: I50 (M) Trypsin (*greater than)

CCCCCCCCSCC(=O)C(F)(F)F [Compound 1, 1,1,1-Trifluoro-3-thioocytylpropan-2-one]
inhibition I50 value, juvenile hormone esterases ([1]; in words): nanomolar range | times more active in vitro for juvenile hormone esterase than TFT ([1]; versus TFT): over 40 times | IC50 [2]: 1.2e-06 M | IC50 [3, 12]: 2.3e-06 M | IC50 [4, 13]: > 1e-05 M | delay of pupation versus ethanol controls ([5]; listed as TFPOS): pupation was delayed with respect to the controls in a dose-dependent manner | delay of pupation ([5]; 0.2μ moles/application): more dramatic | in vivo activity ([5]; in vivo): pronounced in vivo activity | delay of pupation ([5]; repeated doses of 0.1μ moles, first two days of last larval stadium): effective in delaying the pupation | mortality at 0.2 µmol/application [6]: 4% | mortality [6]: No mortality | maximum percent inhibition obtainable after treatment [7]: as effective | selectivity for JHE in vivo [7]: more selective for JHE in vivo than EPPAT | time of maximum inhibition of T. ni JHE after topical application [7]: one | enzyme activity after dialysis [8]: restored gradually to the same activity as in the uninhibited enzyme | t0.5 of reactivation [8]: more than 20 hours | type of inhibition of T. ni JHE [8]: reversible inhibitors

CCCCCCCCCSCC(=O)C(F)(F)F [Compound 2]
IC50 [1]: 3.7e-09 M | IC50 [2]: 6.3e-06 M | IC50 [3, 12]: 9.3e-07 M | IC50 [4, 13]: > 0.0001 M

CCCCCCCCCCSCC(=O)C(F)(F)F [Compound 3]
IC50 [1]: 2e-08 M | IC50 [2]: 1e-05 M | IC50 [3, 12]: 3.2e-06 M | IC50 [4, 13]: 8.2e-05 M

CCCCCCCCCCCSCC(=O)C(F)(F)F [Compound 4]
IC50 [1]: 4.3e-08 M | IC50 [2]: 4.5e-05 M | IC50 [3, 12]: 2.6e-06 M | IC50 [4, 13]: > 0.0001 M

CCCCCCCCCCCCSCC(=O)C(F)(F)F [Compound 5]
IC50 [1]: 1.5e-08 M | IC50 [2]: 9.7e-05 M | IC50 [3, 12]: 2.2e-06 M | IC50 [4, 13]: > 0.0001 M

O=C(CSC1CCCCC1)C(F)(F)F [Compound 6]
IC50 [1]: 5.2e-06 M | IC50 [2]: 7.1e-07 M | IC50 [3, 12]: 1.8e-06 M | IC50 [4, 13]: > 0.0001 M

Cc1ccccc1SCC(=O)C(F)(F)F [Compound 9]
IC50 [1]: 4.3e-06 M | IC50 [2]: 6e-07 M | IC50 [3, 12]: 3.7e-07 M | IC50 [4, 13]: 8.5e-05 M

Cc1ccc(SCC(=O)C(F)(F)F)cc1 [Compound 11]
IC50 [1]: 1.1e-07 M | IC50 [2]: 1.6e-06 M | IC50 [3, 12]: 6.1e-07 M | IC50 [4, 13]: > 0.0001 M

CC(C)c1ccccc1SCC(=O)C(F)(F)F [Compound 12]
IC50 [1]: 3.4e-07 M | IC50 [2]: 2.7e-07 M | IC50 [3, 12]: 4.9e-08 M | IC50 [4, 13]: 4.7e-05 M

O=C(CSc1ccc(Cl)cc1)C(F)(F)F [Compound 19]
Wilkinson kinetics ([9]; clofibrate hydrolysis): curves expected for a slowly reversible inhibitor | effect on hydrolysis of clofibrate ([9]; low concentrations, Vm 104 nmol/min mg microsomal protein, Km 5.5 mM, ethanol release): significant delay in reacting maximal velocity

O=C(CSc1ccc(Br)cc1)C(F)(F)F [Compound 20]
IC50 [1]: 4.1e-07 M | IC50 [2]: 4.9e-06 M | IC50 [3, 12]: 2.4e-06 M | IC50 [4, 13]: > 1e-05 M

CC(C)=CCC/C(C)=C/CCSCC(=O)C(F)(F)F [Compound 31, (E)-8,12-dimethyl-4-thia-1,1,1-trifluorotrideca-7,11-dien-2-one]
IC50 [1]: 3.2e-09 M | IC50 [2]: 7.2e-07 M | IC50 [3, 12]: 6.2e-05 M | IC50 [4, 13]: > 0.0001 M | delay of pupation versus ethanol controls ([5]; listed as DTFT): pupation was delayed with respect to the controls in a dose-dependent manner | maximum percent inhibition obtainable after treatment [7]: as effective | selectivity for JHE in vivo [7]: more selective for JHE in vivo than EPPAT

COC(C)(C)CCC/C(C)=C/CCSCC(=O)C(F)(F)F [Compound 32, (E)-8,12-Dimethyl-12-methoxy-4-Thia-1,1,1-trifluorotridec-7-en-2-one]
IC50 [1]: 3.1e-09 M | IC50 [2]: 1.9e-06 M | IC50 [3]: > 0.0001 M | IC50 [4]: > 0.0001 M

CCOP(N)(=O)Sc1ccccc1 (stereo not drawn) [EPPAT, O-ethyl-S-phenyl phosphoramidothiolate, reference compound]
delay of pupation versus ethanol controls [5]: delayed preparation at both doses; also recorded: pupation was delayed with respect to the controls in a dose-dependent manner | persistence of in vivo inhibition ([7]; compared with TFPOS and DTFT): more persistent | time of maximum inhibition of T. ni JHE after topical application [7]: one | enzyme activity after dialysis [8]: almost complete loss of enzyme activity | type of inhibition of T. ni JHE [8]: irreversible inhibitor | in vitro inhibition of juvenile hormone esterase (literature) [10]: potent in vitro inhibition of juvenile hormone esterase | in vivo activity, topical application to cabbage looper (literature) [11]: disrupt development of the cabbage looper

CCCCCCCCCCCCC(=O)C(F)(F)F [TFT, 1,1,1-trifluorotetradecan-2-one, reference compound]
delay of pupation versus ethanol controls [5]: neither dose of TFT resulted in a delay in pupation; also recorded: no difference in the time of pupation; also recorded: no such in vivo effect | mortality at 0.2 µmol/application [6]: 6% | mortality [6]: No mortality | enzyme activity after dialysis [8]: restored gradually to the same activity as in the uninhibited enzyme | t0.5 of reactivation [8]: more than 20 hours | type of inhibition of T. ni JHE [8]: reversible inhibitors | in vitro inhibition of juvenile hormone esterase (literature) [10]: relatively greater juvenile hormone esterase activity in vitro than EPPAT | in vivo activity, topical application to cabbage looper (literature) [11]: lack of pronounced in vivo activity
